Results reported in patent US9873709B2 (priority 2013, dated 2018).

system: JAK1-dependent STAT6 phosphorylation downstream of IL-13 stimulation in TF-1 human erythroleukemia cells; experiment: cells; conditions: TF-1, read-out: IL-13-pSTAT6 IC50

| IC50 | SMILES |
| --- | --- |
| 53.1 nM | O=C(c1ccc(Nc2nc3c(N4CCC(O)(c5ccc(Cl)cc5)CC4)cccn3n2)cc1)N1CCNCC1CO (centres unmarked) [Example 1-196, [4-[[8-[4-(4-chlorophenyl)-4-hydroxy-1-piperidyl]-[1,2,4]triazolo[1,5-a]pyridin-2-yl]amino]phenyl]-[2-(hydroxymethyl)piperazin-1-yl]methanone] |
| 158 nM | O=C(c1ccc(Nc2nc3c(N4CCC(O)(c5ccc(Cl)cc5)CC4)cccn3n2)cc1)N1CC2CNCC2C1 (centres unmarked) [Example 1-197, 2,3,3a,4,6,6a-hexahydro-1H-pyrrolo[3,4-c]pyrrol-5-yl-[4-[[8-[4-(4-chlorophenyl)-4-hydroxy-1-piperidyl]-[1,2,4]triazolo[1,5-a]pyridin-2-yl]amino]phenyl] methanone] |
| 68.5 nM | O=C(N[C@H]1CCCNC1)c1ccc(Nc2nc3c(N4CCC(O)(c5ccc(Cl)cc5)CC4)cccn3n2)cc1 [Example 1-198, 4-[[8-[4-(4-chlorophenyl)-4-hydroxy-1-piperidyl]-[1,2,4]triazolo[1,5-a]pyridin-2-yl]amino]-N-[(3S)-3-piperidyl]benzamide] |
| 106 nM | O=C(c1ccc(Nc2nc3c(N4CCC(O)(c5ccc(Cl)cc5)CC4)cccn3n2)cc1)N1CC2(CCNCC2)C1 [Example 1-199, [4-[[8-[4-(4-chlorophenyl)-4-hydroxy-1-piperidyl]-[1,2,4]triazolo[1,5-a]pyridin-2-yl]amino]phenyl]-(2,7-diazaspiro[3.5]nonan-2-yl)methanone] |
| 342 nM | O=C(c1ccc(Nc2nc3c(N4CCC(O)(c5ccc(Cl)cc5)CC4)cccn3n2)cc1)N1CC2(CNC2)C1 [Example 1-203, [4-[[8-[4-(4-chlorophenyl)-4-hydroxy-1-piperidyl]-[1,2,4]triazolo[1,5-a]pyridin-2-yl]amino]phenyl]-(2,6-diazaspiro[3.3]heptan-2-yl)methanone] |
| 522 nM | O=C(c1ccc(Nc2nc3c(N4CCC(O)(c5ccc(Cl)cc5)CC4)cccn3n2)cc1)N1CCC2(CNC2)C1 [Example 1-205, [4-[[8-[4-(4-chlorophenyl)-4-hydroxy-1-piperidyl]-[1,2,4]triazolo[1,5-a]pyridin-2-yl]amino]phenyl]-(2,6-diazaspiro[3.4]octan-6-yl)methanone] |
| 192 nM | O=C(c1ccc(Nc2nc3c(N4CCC(O)(c5ccc(Cl)cc5)CC4)cccn3n2)cc1)N1CCC2(CCNC2)C1 (centres unmarked) [Example 1-207, [4-[[8-[4-(4-chlorophenyl)-4-hydroxy-1-piperidyl]-[1,2,4]triazolo[1,5-a]pyridin-2-yl]amino]phenyl]-(2,7-diazaspiro[4.4]nonan-2-yl)methanone] |
| 43.5 nM | O=C(c1ccc(Nc2nc3c(N4CCC(O)(c5ccc(Cl)cc5)CC4)cccn3n2)cc1)N1CC2(CCCNC2)C1 [Example 1-210, [4-[[8-[4-(4-chlorophenyl)-4-hydroxy-1-piperidyl]-[1,2,4]triazolo[1,5-a]pyridin-2-yl]amino]phenyl]-(2,8-diazaspiro[3.5]nonan-2-yl)methanone] |
| 196 nM | O=C(c1ccc(Nc2nc3c(N4CCC(O)(c5ccc(Cl)cc5)CC4)cccn3n2)cc1)N1CCC2(CCCNC2)C1 (centres unmarked) [Example 1-212, [4-[[8-[4-(4-chlorophenyl)-4-hydroxy-1-piperidyl]-[1,2,4]triazolo[1,5-a]pyridin-2-yl]amino]phenyl]-(2,9-diazaspiro[4.5]decan-2-yl)methanone] |
| 165 nM | O=C(c1ccc(Nc2nc3c(N4CCC(O)(c5ccc(Cl)cc5)CC4)cccn3n2)cc1)N1CCC2(CCNCC2)CC1 [Example 1-218, [4-[[8-[4-(4-chlorophenyl)-4-hydroxy-1-piperidyl]-[1,2,4]triazolo[1,5-a]pyridin-2-yl]amino]phenyl]-(3,9-diazaspiro[5.5]undecan-3-yl)methanone] |
| 637 nM | O=C(NCC1COC2(CCNCC2)C1)c1ccc(Nc2nc3c(N4CCC(O)(c5ccc(Cl)cc5)CC4)cccn3n2)cc1 (centres unmarked) [Example 1-220, 4-[[8-[4-(4-chlorophenyl)-4-hydroxy-1-piperidyl]-[1,2,4]triazolo[1,5-a]pyridin-2-yl]amino]-N-(1-oxa-8-azaspiro[4.5]decan-3-ylmethyl)benzamide] |
| 866 nM | O=C(NC1COC2(CCNCC2)C1)c1ccc(Nc2nc3c(N4CCC(O)(c5ccc(Cl)cc5)CC4)cccn3n2)cc1 (centres unmarked) [Example 1-221, 4-[[8-[4-(4-chlorophenyl)-4-hydroxy-1-piperidyl]-[1,2,4]triazolo[1,5-a]pyridin-2-yl]amino]-N-(1-oxa-8-azaspiro[4.5]decan-3-yl)benzamide] |

Second part, the compound before the results:

| SMILES | IC50 |
| --- | --- |
| O=C(c1ccc(Nc2nc3c(N4CCC(O)(c5ccc(Cl)cc5)CC4)cccn3n2)cc1)N1CCCN(c2ccncc2)CC1 [Example 1-114, [4-[[8-[4-(4-chlorophenyl)-4-hydroxy-1-piperidyl]-[1,2,4]triazolo[1,5-a]pyridin-2-yl]amino]phenyl]-[4-(4-pyridyl)-1,4-diazepan-1-yl]methanone] | 29.7 nM |
| O=C(c1ccc(Nc2nc3c(N4CCC(O)(c5ccc(Cl)cc5)CC4)cccn3n2)cc1)N1CCN(CCn2ccnc2)CC1 [Example 1-116, [4-[[8-[4-(4-chlorophenyl)-4-hydroxy-1-piperidyl]-[1,2,4]triazolo[1,5-a]pyridin-2-yl]amino]phenyl]-[4-(2-imidazol-1-ylethyl)piperazin-1-yl]methanone] | 34 nM |
| O=C(c1ccc(Nc2nc3c(N4CCC(O)(c5ccc(Cl)cc5)CC4)cccn3n2)cc1)N1CCCCC1Cc1ccccn1 (centres unmarked) [Example 1-121, [4-[[8-[4-(4-chlorophenyl)-4-hydroxy-1-piperidyl]-[1,2,4]triazolo[1,5-a]pyridin-2-yl]amino]phenyl]-[2-(2-pyridylmethyl)-1-piperidyl]methanone] | 131 nM |
| CN1CCCC(CNC(=O)c2ccc(Nc3nc4c(N5CCC(O)(c6ccc(Cl)cc6)CC5)cccn4n3)cc2)C1 (centres unmarked) [Example 1-141, 4-[[8-[4-(4-chlorophenyl)-4-hydroxy-1-piperidyl]-[1,2,4]triazolo[1,5-a]pyridin-2-yl]amino]-N-[(1-methyl-3-piperidyl)methyl]benzamide] | 57.9 nM |
| CNC(=O)C1CN(C)CCN1C(=O)c1ccc(Nc2nc3c(N4CCC(O)(c5ccc(Cl)cc5)CC4)cccn3n2)cc1 (centres unmarked) [Example 1-152, 1-[4-[[8-[4-(4-chlorophenyl)-4-hydroxy-1-piperidyl]-[1,2,4]triazolo[1,5-a]pyridin-2-yl]amino]benzoyl]-N,4-dimethyl-piperazine-2-carboxamide] | 65 nM |
| CN(C)C(=O)C1CN(C(=O)c2ccc(Nc3nc4c(N5CCC(O)(c6ccc(Cl)cc6)CC5)cccn4n3)cc2)C1 [Example 1-164, 1-[4-[[8-[4-(4-chlorophenyl)-4-hydroxy-1-piperidyl]-[1,2,4]triazolo[1,5-a]pyridin-2-yl]amino]benzoyl]-N,N-dimethyl-azetidine-3-carboxamide] | 10.8 nM |
| CN1CCN(C(=O)C2CN(C(=O)c3ccc(Nc4nc5c(N6CCC(O)(c7ccc(Cl)cc7)CC6)cccn5n4)cc3)C2)CC1 [Example 1-165, [4-[[8-[4-(4-chlorophenyl)-4-hydroxy-1-piperidyl]-[1,2,4]triazolo[1,5-a]pyridin-2-yl]amino]phenyl]-[3-(4-methylpiperazine-1-carbonyl)azetidin-1-yl]methanone] | 25.1 nM |
| O=C(c1ccc(Nc2nc3c(N4CCC(O)(c5ccc(Cl)cc5)CC4)cccn3n2)cc1)N1CCN2CCCC2C1 (centres unmarked) [Example 1-168, 3,4,6,7,8,8a-hexahydro-1H-pyrrolo[1,2-a]pyrazin-2-yl-[4-[[8-[4-(4-chlorophenyl)-4-hydroxy-1-piperidyl]-[1,2,4]triazolo[1,5-a]pyridin-2-yl]amino]phenyl] methanone] | 22.6 nM |
| O=C(NC1CCNC1)c1ccc(Nc2nc3c(N4CCC(O)(c5ccc(Cl)cc5)CC4)cccn3n2)cc1 (centres unmarked) [Example 1-176, 4-[[8-[4-(4-chlorophenyl)-4-hydroxy-1-piperidyl]-[1,2,4]triazolo[1,5-a]pyridin-2-yl]amino]-N-pyrrolidin-3-yl-benzamide] | 279 nM |
| O=C(NC1CCCNC1)c1ccc(Nc2nc3c(N4CCC(O)(c5ccc(Cl)cc5)CC4)cccn3n2)cc1 (centres unmarked) [Example 1-179, 4-[[8-[4-(4-chlorophenyl)-4-hydroxy-1-piperidyl]-[1,2,4]triazolo[1,5-a]pyridin-2-yl]amino]-N-(3-piperidyl)benzamide] | 84.3 nM |
| O=C(NCC1CCNC1)c1ccc(Nc2nc3c(N4CCC(O)(c5ccc(Cl)cc5)CC4)cccn3n2)cc1 (centres unmarked) [Example 1-180, 4-[[8-[4-(4-chlorophenyl)-4-hydroxy-1-piperidyl]-[1,2,4]triazolo[1,5-a]pyridin-2-yl]amino]-N-(pyrrolidin-3-ylmethyl)benzamide] | 322 nM |
| O=C(NC1CCNCC1)c1ccc(Nc2nc3c(N4CCC(O)(c5ccc(Cl)cc5)CC4)cccn3n2)cc1 [Example 1-181, 4-[[8-[4-(4-chlorophenyl)-4-hydroxy-1-piperidyl]-[1,2,4]triazolo[1,5-a]pyridin-2-yl]amino]-N-(4-piperidyl)benzamide] | 181 nM |
| O=C(NCC1CCCNC1)c1ccc(Nc2nc3c(N4CCC(O)(c5ccc(Cl)cc5)CC4)cccn3n2)cc1 (centres unmarked) [Example 1-183, 4-[[8-[4-(4-chlorophenyl)-4-hydroxy-1-piperidyl]-[1,2,4]triazolo[1,5-a]pyridin-2-yl]amino]-N-(3-piperidylmethyl) benzamide] | 536 nM |
| O=C(NCC1CCNCC1)c1ccc(Nc2nc3c(N4CCC(O)(c5ccc(Cl)cc5)CC4)cccn3n2)cc1 [Example 1-184, 4-[[8-[4-(4-chlorophenyl)-4-hydroxy-1-piperidyl]-[1,2,4]triazolo[1,5-a]pyridin-2-yl]amino]-N-(4-piperidylmethyl)] | 127 nM |
| O=C(NCCN1CCNCC1)c1ccc(Nc2nc3c(N4CCC(O)(c5ccc(Cl)cc5)CC4)cccn3n2)cc1 [Example 1-187] | 462 nM |
| O=C(NCC1CNCCO1)c1ccc(Nc2nc3c(N4CCC(O)(c5ccc(Cl)cc5)CC4)cccn3n2)cc1 (centres unmarked) [Example 1-188, 4-[[8-[4-(4-chlorophenyl)-4-hydroxy-1-piperidyl]-[1,2,4]triazolo[1,5-a]pyridin-2-yl]amino]-N-(morpholin-2-ylmethyl)benzamide] | 34.7 nM |
| NCC1CCN(C(=O)c2ccc(Nc3nc4c(N5CCC(O)(c6ccc(Cl)cc6)CC5)cccn4n3)cc2)CC1 [Example 1-193, [4-(aminomethyl)-1-piperidyl]-[4-[[8-[4-(4-chlorophenyl)-4-hydroxy-1-piperidyl]-[1,2,4]triazolo[1,5-a]pyridin-2-yl]amino]phenyl] methanone] | 249 nM |
